In patent EP3283473B1, “GHRELIN O-ACYL TRANSFERASE INHIBITORS” (Eli Lilly and Company, priority 2015, dated 2016):

Target: T1, GOAT enzyme (Mus musculus, UniProt P0C7A3)
T1 construct: from tissue; host or cells: living male C57BL/6 mice (endogenous enzyme)
T1 sequence (P0C7A3 1-435): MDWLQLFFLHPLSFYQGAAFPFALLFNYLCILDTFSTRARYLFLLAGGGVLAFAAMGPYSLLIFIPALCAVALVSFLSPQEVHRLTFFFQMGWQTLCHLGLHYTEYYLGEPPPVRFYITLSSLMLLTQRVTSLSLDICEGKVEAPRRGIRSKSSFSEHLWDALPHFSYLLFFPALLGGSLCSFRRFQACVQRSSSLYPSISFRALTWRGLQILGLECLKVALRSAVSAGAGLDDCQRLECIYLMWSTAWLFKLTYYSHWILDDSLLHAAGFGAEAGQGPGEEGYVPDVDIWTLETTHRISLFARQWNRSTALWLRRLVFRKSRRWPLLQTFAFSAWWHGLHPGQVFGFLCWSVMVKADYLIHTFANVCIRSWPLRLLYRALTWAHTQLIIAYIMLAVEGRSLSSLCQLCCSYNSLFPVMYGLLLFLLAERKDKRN
Assay: In vivo dose dependent 3 day BID study for GOAT inhibitor (plasma AG and UAG by ELISA)
Set-up: species or system male C57BL/6 mice
Settings: for decreases plasma AG / increases UAG: administration for 3 days; for decreases plasma AG / increases UAG / AG (% of control) / AG/total-ghrelin (% of vehicle control) / UAG (% of vehicle control): mice; for reduction in AG to total ghrelin ratio: compared to vehicle-treated control animals; for AG (% of control) / AG/total-ghrelin (% of vehicle control) / UAG (% of vehicle control): oral gavage BID, 3 days, plasma
Description: Comparing the change in the ratio of AG to total ghrelin in the compound treated group and that of the vehicle treated group reflects the degree of GOAT enzyme inhibition in vivo, due to the dynamic processing of UAG to AG by the GOAT enzyme. In the in vivo pharmacodynamic studies herein, the levels of AG and UAG in plasma and stomach in the vehicle and compound treated groups are measured by ELISA specifically to these two analytes. The total ghrelin level of each sample is computed as the sum of AG and UAG by these ELISA measurements. The ratio of AG to total ghrelin is defined by the level of AG in each sample divided by the level of total ghrelin in the same sample. The levels of AG, UAG and ratio of AG to total ghrelin in the vehicle treated group is computed and set as 100%. The relative change of these parameters in the compound treated group is then computed to determine the effectiveness of the test compound.
Purchase male C57BL/6 mice from Harlan (Indianapolis, IN) at 9 weeks of age. House the mice individually in a temperature-controlled (24 °C) facility with a 12 hours light/dark cycle (lights on 2200 h), and allow free access to a standard rodent chow (diet 2014, Harlan) and water. Typically, use the mice when they are 10-13 weeks of age at the time of the study. On day 0 of the experiment, randomize the mice into treatment groups (N=7/group) so each group has similar mean body weights. On day 1 and day 2, treat the animals with vehicle (1% hydroxyethylcellulose, 0.25% TWEEN™ 80, 0.05% antifoam) or test compound prepared in the vehicle as suspension at various dosages by oral gavage at 7 am and 7 pm. On day 3, fast the animals, move them into clean cages and dose with vehicle or the test compound again at 8 am by oral gavage. That same day at 1 pm, sacrifice the animals by decapitation to collect blood. For details of blood collection and plasma treatments see Blood collection and Extraction of Ghrelin from Plasma section below.
Collect approximately 600 µL blood into a pre-weighed EDTA tube containing 600 µL (defined as Vpreservative) freshly-prepared preservative (4 mM PEFABLOC® [4-(2-aminoethyl) benzenesulfonyl fluoride hydrochloride], 72 mM NaCl, 58 mM NaF, 0.032 N hydrochloric acid, pH 3.0) and mix immediately. Weigh the tube again and keep on ice. To accurately determine the exact blood volume of each sample using this blood collection procedure, the weight of the blood for each mouse is computed using the following equation: Weight of Blood = (Weight of the tube containing Blood + preservative)−; (Weight of the tube containing preservative) [formula] Blood volume(Vblood) = (Weight of blood)/1.06 [formula]
Within 15 minutes after the blood collection, samples are centrifuged at 5000 rpm at 4 °C for 8 min. Remove plasma (650 µL) to a 5 mL glass tube containing 1 N hydrochloric acid (65µL), mix and keep on ice.
AG and UAG are extracted from plasma using SEP-PAK®_C18 column to remove interference prior to performing the ELISA. The solid phase extraction of AG and UAG peptides by SEP-PAK®_C18 columns can be performed on a vacuum manifold (Waters Corp) or using a peristaltic pump. The sample SEP-PAK®_column extraction procedure is independently applied to the plasma sample obtained from each individual mouse. The general extraction protocol is described as follows.
All solutions used for the entire protocol of the SEP-PAK® column extraction should be at ice cold condition. Wet SEP-PAK®_columns (WAT054960, Waters Corp, Milford MA) with 99.9% ACN/0.1% TFA (1 mL of solution of 100 mL ACN/0.1 mL TFA). […] Once liquid is removed from the column, stop the pressure. Equilibrate the columns with 3% ACN/0.1% TFA (1 mL of 97 mL water, 3 mL ACN, 0.1 mL TFA). […] Dilute approximately 650 µL acidified plasma (defined as Vplasma added to column) to 1.4 mL ice cold 0.1% TFA. Load all diluted acidified plasma from the previous step onto the columns. […]

decreases plasma AG (0.1 mg/kg): 40%
increases UAG (0.1 mg/kg): 2.10 fold
reduction in AG to total ghrelin ratio (0.1 mg/kg): 57%
AG (% of control) (0.1 mg/kg): 60 ± 8 (n=7) % of control
AG/total-ghrelin (% of vehicle control) (0.1 mg/kg): 43 ± 3 (n=7) % of vehicle control
UAG (% of vehicle control) (0.1 mg/kg): 210 ± 43 (n=7) % of vehicle control
decreases plasma AG (0.3 mg/kg): 60%
increases UAG (0.3 mg/kg): 2.22 fold
reduction in AG to total ghrelin ratio (0.3 mg/kg): 62%
AG (% of control) (0.3 mg/kg): 40 ± 10 (n=7) % of control
AG/total-ghrelin (% of vehicle control) (0.3 mg/kg): 28 ± 1 (n=7) % of vehicle control
UAG (% of vehicle control) (0.3 mg/kg): 222 ± 54 (n=7) % of vehicle control
decreases plasma AG (1 mg/kg): 56%
increases UAG (1 mg/kg): 3.57 fold
reduction in AG to total ghrelin ratio (1 mg/kg): 79%
AG (% of control) (1 mg/kg): 44 ± 6 (n=14) % of control
AG/total-ghrelin (% of vehicle control) (1 mg/kg): 21 ± 1 (n=14) % of vehicle control
UAG (% of vehicle control) (1 mg/kg): 357 ± 30 (n=14) % of vehicle control
decreases plasma AG (3 mg/kg): 63%
increases UAG (3 mg/kg): 3.49 fold
reduction in AG to total ghrelin ratio (3 mg/kg): 82%
AG (% of control) (3 mg/kg): 37 ± 9.6 (n=14) % of control
AG/total-ghrelin (% of vehicle control) (3 mg/kg): 18 ± 5 (n=14) % of vehicle control
UAG (% of vehicle control) (3 mg/kg): 349 ± 41 (n=14) % of vehicle control
decreases plasma AG (10 mg/kg): 63%
increases UAG (10 mg/kg): 3.78 fold
reduction in AG to total ghrelin ratio (10 mg/kg): 82%
AG (% of control) (10 mg/kg): 37 ± 9.9 (n=7) % of control
AG/total-ghrelin (% of vehicle control) (10 mg/kg): 18 ± 3 (n=7) % of vehicle control
UAG (% of vehicle control) (10 mg/kg): 378 ± 59 (n=7) % of vehicle control
Compound: Cc1nc(C(F)(F)F)nc(N)c1CCC1CCN(C(=O)[C@H](C)NC(=O)c2ccnn2C)CC1 [Example 2, N-[(1S)-2-[4-[2-[4-Amino-6-methyl-2-(trifluoromethyl)pyrimidin-5-yl]ethyl]-1-piperidyl]-1-methyl-2-oxo-ethyl]-2-methyl-pyrazole-3-carboxamide]
